≈ marks a conversion by molar mass, not a printed value. Read-outs that look alike come from different tables or passages of the source.
Legend:
[1] = system: anti-Gal antibodies in baboon serum; test: competition ELISA, inhibition of xenoreactive antibody activity (IC50); type: binding; conditions: for IC50 (FIG. 24): mass per volume of polymer, new pipette tip for each addition
Experimental: Principle of the assay: A competition ELISA was set up in such a way that Gal-molecules linked to human serum albumin and immobilized onto a microtiter plate and Gal-molecules linked to PEG compete for anti-Gal antibodies in baboon serum. The antibodies binding to the Gal-HSA were visualized using secondary antibodies to these antibodies with appropriate color development agents. The color in the case in which no Gal-PEG was added was defined as 100%. The IC50 was defined, for FIG. 3, as the concentration of Gal-PEG needed to inhibit 50% of the color development when trying to detect antibodies immobilized onto the Gal-HSA plate. For FIG. 24, the IC50 is defined in terms of mass per volume, e.g. mg/mL, of polymer.
Briefly, a 96 well microtiter was coated with 100 ul/well of a 30 ug/mL solution of αGal(1,3)Gal β 1-4 GlcNAc-human serum albumin (Gal-HSA) and incubated for 90 minutes at room temperature. After incubation with Gal-HSA, the plate was blocked with 1% HSA in PBS for 60 minutes.
While the microtiter plate was coated and blocked, samples were prepared as follows: Fifteen different dilution solutions were prepared for 1 plate. The first dilution solution was 1% HSA in PBS. […] were obtained by preparing a 2.5 mL stock solution of 10 mM αGal(1,3)Gal β 1-4 GlcNAc in 1% HSA/PBS and then serially diluting 1/10 three times. Dilution solutions 6-15 were obtained by preparing a 2.5 mL stock solution of the first concentration of modified PEG and then serially diluting 1/10 nine times in 1% HSA in PBS.
The plate was incubated for 90 minutes at 4° C. The plate was washed five times with PBS containing 0.5% Tween 20 and blot dried.
When assaying for xenoreactive IgM, 100 ul/well of Goat anti-human IgM-biotin antibody, diluted 1/4000 in 1% HSA/PBS, was added.
When assaying for xenoreactive IgG, 100 ul/well of Goat anti-human IgG-biotin antibody, diluted 1/4000 in 1% HSA/PBS, was added.
The biotinylated secondary antibody was incubated for one hour at 4° C. and afterwards the plate was washed five times with PBS containing 0.5% Tween 20 and blot dried. Hereafter, 100 ul/well streptavidin-alkaline phosphatase conjugate was added at a dilution of 1/4000 in 1% HSA/PBS and incubated for 30 minutes at room temperature. The microtiter plate was washed five times with PBS containing 0.5% Tween 20 and blot dried. 150 ul developer per well was added and the plate incubated for 30 minutes at room temperature. The color development was stopped by addition of 40 ul/well of 3 M NaOH. The plate was read in a plate reader at wavelength of 405 nm.
The IC50 data was calculated from the percent inhibition from the dilution of baboon control in 1% HSA/PBS which gave this highest point within the linear range.
% Inhibition=(([OD of BC in HSA]−[OD of BC in αGal(1,3)Gal β 1-4 GlcNAc or PEG-(αGal(1,3)Gal β 1-4 GlcNAc)x])/OD of BC in HSA)*100

[2] = system: IgM and IgG antibodies directed against the α-gal epitope (XNA); test: 810S vs immunoapheresis: circulating α-gal antibodies (serum ELISA); type: in vivo, baboon
Experimental: FIG. 26 is a graph of IgM XNA Levels: 810S vs IP-treated baboons. Baboons were either treated with 810S (50 mg/kg) every 3 days for a total of 6 treatments, or underwent a total of 6 immunoapheresis treatments using α-gal columns every 3 days. Serum from each baboon was analyzed by ELISA for IgM antibodies directed against the α-gal epitope. The percent IgM XNAs remaining were calculated using baseline values from each animal as 100%.
FIG. 27 is a graph of IgG XNA Levels: 810S vs IP-treated baboons. Baboons were either treated with 810S (50 mg/kg) every 3 days for a total of 6 treatments, or underwent a total of 6 immunoapheresis treatments using α-gal columns every 3 days. Serum from each baboon was analyzed by ELISA for IgG antibodies directed against the a -gal epitope. The percent […] XNAs remaining were calculated using baseline values from each animal as 100%.
(§1) A total of 6 baboons were used. Three baboons (designated 51-98, 48-98 and 47-98) underwent immunoapheresis (IP) using α-gal columns, with plasma from 3 blood volumes being passed over the columns every 3 days for a total of 6 treatments. Three other baboons (designated 46-98, 52-98, 50-98) received IV infusions of 810S at 50 mg/kg every 3 days for a total of 6 treatments. No immunosuppression or exposure to pig organs was included in the protocol.
(§2) In both groups, serum samples and blood were collected to measure α-gal antibody levels and ASCs during the treatment period and during a follow-up period out to approximately 150-180 days.

[3] = system: α-gal antibody secreting cells (ASCs); test: 810S vs immunoapheresis: peripheral α-gal antibody secreting cells (ELISPOT); type: in vivo, baboon
Experimental: FIG. 34 compares the IgG response between IP and TPC (810) treated baboons. Baboons were either treated with 810S (50 mg/kg) every 3 days for a total of 6 treatments, or underwent a total of 6 immunoapheresis treatments using α-gal columns every 3 days. Peripheral blood mononuclear cells were collected and analyzed for the number of cells secreting IgG antibodies directed against α-gal using an ELISPOT analysis. The fold-change in antibody secreting cells (ASCs) was calculated by normalizing to baseline values. Values are represented as the mean from 3 baboons per group.
FIG. 35 compares the IgM response between IP and TPC (810) treated baboons. Baboons were either treated with 810S (50 mg/kg) every 3 days for a total of 6 treatments, or underwent a total of 6 immunoapheresis treatments using α-gal columns every 3 days. Peripheral blood mononuclear cells were collected and analyzed for the number of cells secreting IgM antibodies directed against α-gal using an ELISPOT analysis. The fold-change in antibody secreting cells (ASCs) was calculated by normalizing to baseline values. Values are represented as the mean from 3 baboons per group.
as §1, §2

[4] = system: total IgM and total IgG; test: 810S-treated baboons: total IgM and total IgG by ELISA; type: in vivo, baboon; conditions: all 3 animals, throughout the experiment
Experimental: FIG. 28 is a graph of baboon 46-98 antibody response to 810S. Baboon 46-98 was treated with 810S (50 mg/kg) every 3 days for a total of 6 treatments. Serum was analyzed for IgM and IgG antibodies directed against the α-gal epitope (XIgM or XIgG), as well as for total IgM (TotIgM) or total IgG (TotIgG) by ELISA. The percent antibody remaining was calculated using baseline values as 100%.
as §1

[5] = presence of 810S in baboon serum at day 30 (competition with human XNA binding to GAL-HSA); type: in vivo; conditions: day 30 serum
From the text: To investigate whether 810S was still in baboon serum by day 30, serum was mixed with human serum and analyzed by ELISA for competition with human XNA binding to GAL-HSA.

[6] = 50 mg/kg IV every 3 days, after the final (6th) treatment

## (αGal(1,3)Gal β 1-4 GlcNAc)8-PEG [Example 410L]
[1]
  IC50: 500 mg/L
[1]; from IC50 of 410L versus free sugar
  times more effective per coupled sugar than the free sugar: 100 times

## CC(=O)N[C@H]1C(O)O[C@H](CO)[C@@H](O[C@@H]2O[C@H](CO)[C@H](O)[C@H](O[C@H]3O[C@H](CO)[C@H](O)[C@H](O)[C@H]3O)[C@H]2O)[C@@H]1O (stereo partly drawn) [free sugar, αGal(1,3)Gal β 1-4 GlcNAc, reference compound]
[1]
  IC50: 50000 mg/L (≈ 91.7 mM)

## (αGal(1,3)Gal β 1-4 GlcNAc)8, PEG [Example 810E]
[1]
  IC50 (FIG. 24): 100 mg/L

## (αGal(1,3)Gal β 1-4 GlcNAc)8-PEG [Example 810S]
[1]; approximate, 810 S and its diafiltration fractions (Example 30)
  IC50: 0.005 mg/L
[1]
  IC50 (FIG. 24): 0.5 mg/L
[2]; [6]
  IgG XNA levels, % of baseline values: 1-9%
  IgM XNA levels, % of baseline values: 1-3%
[2]; 50 mg/kg IV, after the 1st treatment, all 3 baboons
  circulating IgG and IgM XNA levels, % of initial levels: 1-13%
[2]; by day 30
  IgG XNA levels, % of baseline values: 20-33%
  IgM XNA levels, % of baseline values: 8-18%
[2]; day 184, 2 810S-treated baboons
  IgG XNA levels, % of baseline values: 30-38%
[2]; day 184, 3rd baboon
  IgM XNA levels, % of baseline levels: 60%
[2]; day 184, one (3rd) baboon
  IgG XNA levels: returned to baseline
[2]; day 184, the other 2 baboons
  IgM XNA levels, % of baseline values: 24-39%
[3]; 1 week after day 30
  IgM and IgG ASC levels, % of initial levels: about 62%
[3]; after the sixth treatment
  IgM and IgG ASCs, % of starting levels: 3-6%
[3]; by the fourth treatment
  IgM and IgG ASCs, % initial levels: about 10%
[3]; by the second treatment with 810S
  IgM and IgG ASC levels, % of initial levels: 20-40%
[3]; day 30, 2 weeks after 810S treatment was terminated
  IgM and IgG ASC levels, % of initial levels: about 38%
[4]
  total IgM and IgG levels: remained relatively constant
[5]
  810S still in baboon serum: not still in circulation

— US20040141944A1, “Inhibition of xenoreactive antibodies” (priority 1998, published 2004)
